Experimental data taken from patent publication US12589099B2 (priority 2021, dated 2026).

Experiments:
[1] = test system: moderate traumatic brain injury (TBI) induced by controlled cortical impact (CCI); experiment: Novel object recognition (NOR) test after TBI; type: in vivo, male Wistar rats
Description: FIG. 2: The figure illustrates functional tests that are carried out on healthy (sham surgery) no treatment, vehicle treated and ALPHA-1062 treated rats to assess sensorimotor and cognitive function after TBI. Sensimotor function tests. a) The figure depicts tests to assess the modified neurological severity score (mNSS). […] The animal is required to balance over a grid and the frequency of steps missing the grid are counted. This test assesses the functionality of the injured parietal cortex of the rat's brain. c) The adhesive removal test consists of applying adhesive tape on each forepaw of the animal and measuring the time-to-contact and the time-to-remove them. This behavior requires correct paw and mouth sensitivity (time-to-contact) and correct dexterity (time-to-remove). Cognitive function tests: a) This picture illustrates the Morris water maze that comprises that a rat is placed in a large circular pool (picture on the left) and is required to find an invisible platform that allows it to escape the water by using various visuo-spatial cues. This test is used to study spatial learning and memory and assesses hippocampal and select cortical brain region function. Usually, the path of the rat through the pool is tracked (picture on the right) and the time spend in the proximity of the platform as well as the time needed until the platform is found by the rat are measured. b) For the new/novel object recognition (NOR) test, after a habituation time in the test space (picture on far left) rats are given the opportunity to explore two identical objects (A) for a predetermined period of time (picture in the middle). After a delay, the animals are then presented with two objects to explore, one of which is the same as in the first exploration trial (A), the other a new object (B) (picture on the right). […]

[2] = test system: DCX+ neuroblasts in the dentate gyrus of the hippocampus; experiment: Doublecortin (DCX) IHC, neuroblasts in the dentate gyrus 35 days post-TBI; type: in vivo, male Wistar rats; details: 4.5 mg/kg IN twice daily; 35 days following TBI
Description: Young adult (2-3 months) male Wistar rats were subjected to a moderate traumatic brain injury (TBI) induced by controlled cortical impact (CCI). Animal models of TBI including the CCI model and functional tests have been described in detail in peer reviewed publications (Xiong et al., 2013, Nat Rev Neurosci.; Zhang et al., 2016, J Neurosurg.; Zhang et al., 2016, Neurochem Int.; Zhang et al., 2021, J Neurotrauma). Injury consisted of a single impact at 4.0 m/sec, 2.5 mm deformation to the left parietal cortex. In addition, a group of animals was left healthy/not injured to serve as a healthy control.
The substance used in this study was ALPHA-1062 at 4.5 mg/kg. As control treatment (vehicle) purified water was administered intranasally (IN). […]
Histological assessment was performed including quantitative image analysis protocols; followed by statistical analysis of the data. […]
For cell counting and quantitation NeuN+ cells were examined in the ipsilateral cortex, DG, CA1, and CA3 regions of the ipsilateral hippocampus. […] The number of BrdU+ cells (red-fluorophore) and NeuN (green-fluorophore)/BrdU-colabeled cells (yellow after merge) were counted. […] The immune-positive cells were determined and divided by the measured areas and presented as numbers per square mm. […]

SMILES: COc1ccc2c3c1O[C@H]1C[C@@H](OC(=O)c4ccccc4)C=C[C@@]31CCN(C)C2 [ALPHA-1062, (4aS,6R,8aS)-5,6,9,10,11,12-hexahydro-3-methoxy-11-methyl-4aH-[1]benzofuro[3a,3,2-ef][2]benzazepin-6-ol benzoate]
- NOR, percentage of time spent exploring novel object (B) vs familiar object ([1]; 4.5 mg/kg IN twice daily, 5 weeks after TBI): statistically significant preference for the novel object
- Novel Object Recognition, performance over SHAM ([1]; rats after TBI, compared to healthy sham animals): equivalent to
- Novel Object Recognition, performance over VEHICLE ([1]; rats after TBI, compared to vehicle treatment): superior
- DCX positive cells in dentate gyrus compared to sham surgery cohort [2]: comparable numbers
- DCX positive cells in dentate gyrus compared to vehicle [2]: higher number of DCX positive cells
